# Measurements reported in US9061984B2 (University of Louisville Research Foundation, Inc., priority 2008, dated 2015).
# Read-outs that look alike come from different tables or passages of the source.
# Legend:
# VERO cell = assay: Cytotoxicity VERO cell (Table 6); conditions: Table 6
# M. tuberculosis H37Rv [1] = assay: Conventional aerobic (MABA) culture assay, luminescence MIC; format: cell-based, Mycobacterium tuberculosis; conditions: aerobic, 7 days, H37Rv; for MIC: Mycobacterium tuberculosis, 168 h
# [2] = biological target: Trypanosoma cruzi (Tulahuen C4); assay: In vitro anti-T. cruzi activity (β-galactosidase CPRG colorimetric assay in VERO monolayer); format: cell-based; conditions: for Selectivity Index Lab B: IC50, VERO/IC50, T. cruzi; for inhibition at 10 µg/mL / IC50: Trypanosoma cruzi, TULAHUEN, Vero; for inhibition at 10 µg/mL: 120 h, 10 μg/mL of each compound, 120 hours, read-out: T. cruzi Inhib. (%)
# [3] = test system: axenic amastigotes of L. amazonensis (strain MHOM/BR/76/LTB-012); conditions: Table 8b; for IC50: read-out: L. amazonensis IC50
# VERO cells [4] = assay: Cytotoxicity on VERO cells (MTT), anti-T. cruzi study; conditions: Lab B
# peritoneal macrophages = assay: Toxicity to peritoneal macrophages (Trypan Blue count); format: cell-based, BALB/C mouse
# HT-29 cells = assay: Cell growth inhibition bioassay (sulforhodamine B); format: cell-based, human; conditions: 48 h, SRB; for GI50: Homo sapiens, HT-29, read-out: GI50 in indicated cell line: HT-29
# In short: (§1)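 Cells were exposed to compound alongside matched solvent controls, then stained with sulforhodamine B. Percent growth inhibition was calculated from dye absorbance against the control.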
# K562 cells = assay: Cell growth inhibition bioassay (sulforhodamine B); format: cell-based, human; conditions: 48 h, SRB; for GI50: Homo sapiens, K562, read-out: GI50 in indicated cell line: K562
# In short: as §1
# H460 cells = assay: Cell growth inhibition bioassay (sulforhodamine B); format: cell-based, human; conditions: 48 h, SRB; for GI50: Homo sapiens, NCI-H460, read-out: GI50 in indicated cell line: H460
# In short: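 Human cancer cells (MCF-7 breast, DU145 and PC3 prostate, H460 large cell lung) were treated with compounds. Growth relative to solvent control was quantified by SRB protein stain.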
# DU145 cells = assay: Cell growth inhibition bioassay (sulforhodamine B); format: cell-based, human; conditions: 48 h, SRB; for GI50: Homo sapiens, DU-145, read-out: GI50 in indicated cell line: DU145
# In short: (§2)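 SRB colorimetric read-out; % growth inhibition vs solvent control. Human lines: MCF-7 (breast adenocarcinoma), DU145 (prostate carcinoma), PC3 (prostate adenocarcinoma), H460 (large cell lung cancer).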
# M-14 cells = assay: Cell growth inhibition bioassay (sulforhodamine B); format: cell-based, human; conditions: 48 h, SRB; for GI50: Homo sapiens, M14, read-out: GI50 in indicated cell line: M-14
# In short: as §1
# MCF-7 cells = assay: Cell growth inhibition bioassay (sulforhodamine B); format: cell-based, human; conditions: 48 h, SRB; for GI50: Homo sapiens, MCF7, read-out: GI50 in indicated cell line: MCF-7
# In short: as §2
# 3T3 cells = assay: Cell growth inhibition bioassay (sulforhodamine B); format: cell-based, mouse; conditions: for GI50: Mus musculus, NIH3T3, read-out: GI50 in indicated cell line: 3T3
# In short: as §1
# [5] = test system: non-replicating persistence Mycobacterium tuberculosis (NRP-TB); assay: Low oxygen recovery assay (LORA); format: cell-based; conditions: anaerobic 10 days, 28 hour recovery; value in brackets
# VERO cells [6] = assay: Cell growth inhibition bioassay (sulforhodamine B); format: cell-based, African Green Monkey; conditions: 48 h, SRB; for GI50: Chlorocebus sabaeus, Vero, read-out: GI50 in indicated cell line: VERO
# In short: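 Cytotoxicity is read by sulforhodamine B colorimetry following the Skehan protocol; values are growth inhibition relative to solvent-only wells.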
# VERO cells [7] = assay: VERO cells IC50 (Table 5); format: cell-based, African green monkey; conditions: Chlorocebus sabaeus
# [8] = test system: axenic amastigotes of L. amazonensis (strain MHOM/BR/76/LTB-012); assay: microbe, parasite or virus in culture; conditions: Leishmania amazonensis
# M. tuberculosis MDR = assay: Anti-tuberculosis bioassay (tetrazolium microplate MIC); format: cell-based; conditions: Mycobacterium tuberculosis, read-out: Mycobacterium MIC MDR
# M. tuberculosis H37Rv [9] = assay: as above; format: cell-based; conditions: Mycobacterium tuberculosis, read-out: Mycobacterium MIC H37Rv, Table 5
# [10] = Cytotoxicity on VERO cells (MTT), anti-T. cruzi study; conditions: African green monkey, VERO cells
# [11] = Toxicity to peritoneal macrophages (Trypan Blue count); format: cell-based, BALB/C mouse; conditions: BALB/C, mouse
# L. peruviana LCA08 = assay: Activity against macrophages infected with Leishmania amastigotes; conditions: Leishmania peruviana, Macrophage, read-out: IC50 L. peruviana LCA08
# Experimental: (§3) A cloned line of Leishmania amazonensis(strain MHOM/BR/76/LTB-012) was used in all experiments. Axenically grown amastigote forms of L. amazonensis were maintained by weekly subpassages in MAA/20 medium (Sereno and Lemesre, Antimicrobial Agents and Chemotherapy 41, 972-976 (1997)) at 32±1° C. in 25 cm^2 tissue culture flasks. L. peruviana (strain MHOM/PE/LCA08) and L. braziliensis (strainMHOM/PE/PER006) were maintained in the promastigote stage in a biphasic medium (blood agar with 0.89% NaCl, pH 7.4) at 24° C., with sub-passage every 3 to 4 days. Promastigotes (5×10^6 parasites) were then transferred to 25 cm2 tissue culture flasks containing 5 ml of M199 medium supplemented with 10% foetal bovine serum (FBS), pH 7.4. After 4 days, exponential phase promastigotes were centrifuged for 10 minutes at 1500 g and 4° C. The supernatant was discarded and replaced by fresh M199 medium supplemented with 20% FBS, pH 5.5. Axenic amastigotes transformation was then induced by increasing the temperature to 34° C. and incubating for 96 h (Teixeira et al., Parasitology Research 88, 963-968 (2002)).
# (§4) Extracted cells were immediately deposited on sterile 4×4 mm cover glasses and placed in each well of a 96-well plate. Plates were incubated for 24 h at 37° C., 5% CO2 to allow cell adhesion (Castillo et al, Journal of Ethnopharmacology 112, 410-414 (2007)). Pre-warmed complete M199 medium was used twice to remove non-adherent cells. A neutral red method (Fautz et al., Mutation Research 253, 173-179 (1991)) was employed to determine cell concentration. Approximately 7×10^4 viable cells were deposited in each well for adhesion.
# (§5) Infection of macrophages by amastigotes was determined as follows. […] Twelve hours after infection, a solution of the compounds to be tested was added to the cultures at various concentrations and maintained at 37° C. in 5% CO2 for a further forty-eight hours more. The plates were fixed with methanol and stained with 10% Giemsa stain. The percentage of infected macrophages was determined microscopically at 100 times magnification. The number of intracellular amastigotes was determined in 300 cells. Following Delorenzi et al. Antimicrobial Agents and Chemotherapy, 45, 1349-1354 (2001)) the percentage of infection rate (% IR) of each culture was calculated as follows: % IR=100−(infection rate of the treated culture/infection rate of the untreated culture)×100.
# (§6) All experiments were performed in triplicate. ANOVA was used to test for statistical significance of differences (Epi-Info, Statview student program). The total parasite burden was calculated as a mean number of amastigotes per cells multiplied by the number of infected macrophages.
# L. amazonensis = conditions: intralesional, compounds 5 mg/kg/day, Glucantime 33 mg Sb(v)/kg/day; for Mean lesion wt (mg) (±SD): BALB/c mice n=10; for % Variation of lesion wt / % reduction of parasite burden in the lesion: vs control
# L. braziliensis PER006 = assay: Activity against macrophages infected with Leishmania amastigotes; conditions: Leishmania braziliensis, Macrophage, read-out: IC50 L. braziliensis PER006
# Experimental: as §3, §4, §5, §6
# [12] = read-out: IC50 Cytotoxicity Against Amastigotes
# [13] = Lab B, read-out: T. cruzi IC50 Lab B
# [14] = Table 2, read-out: IC50 - T. cruzi
# [15] = IC50 - VERO Cytotoxicity, Table 2
# [16] = IC50 Cytotoxicity Against Macrophages
compound,measurement,setting,value
FC(F)(F)c1ccccc1C=NNc1ncnc2sc3c(c12)CCCC3 [II-25],Cytotoxicity VERO cell,VERO cell,7.6 µg/mL
same,MIC MABA,M. tuberculosis H37Rv [1],5.9 µg/mL
same,T. cruzi IC50 Lab A,[2]; Lab A,0.5 µg/mL
same,T. cruzi IC50 Lab B,[2]; Lab B,5.2 µg/mL
same,IC50,[3],0.4 µM
same,Cytotoxicity VERO Lab B,VERO cells [4],3.0
same,IC50,peritoneal macrophages,1.2 µM
same,GI50 in indicated cell line: HT-29,HT-29 cells,1.7 µg/mL
same,GI50 in indicated cell line: K562,K562 cells,0.6 µg/mL
same,GI50 in indicated cell line: H460,H460 cells,2.0 µg/mL
same,GI50 in indicated cell line: DU145,DU145 cells,1.3 µg/mL
same,GI50 in indicated cell line: M-14,M-14 cells,2.5 µg/mL
same,GI50 in indicated cell line: MCF-7,MCF-7 cells,1.8 µg/mL
same,GI50 in indicated cell line: 3T3,"3T3 cells; 48 h, SRB",6.0 µg/mL
same,MIC LORA,[5],5.8 µg/mL
same,GI50 in indicated cell line: VERO,VERO cells [6],1.7 µg/mL
Fc1ccccc1/C=N\Nc1ncnc2sc3c(c12)CCCC3 [II-27],IC50,VERO cells [7],27.7 µg/mL
same,IC50,[8]; [12],3.2 µM
same,IC50,[8]; read-out: L. amazonensis IC50,1.1 µM
same,MIC,M. tuberculosis MDR,3.12 µg/mL
same,MIC,M. tuberculosis H37Rv [1],> 100 µg/mL
same,MIC,M. tuberculosis H37Rv [9],3.12 µg/mL
same,Selectivity Index Lab B,[2]; Lab B,1.7
same,inhibition at 10 µg/mL,[2],78.9%
same,IC50,[2]; [13],3.5 µg/mL
same,IC50,[2]; [14],4.37 µg/mL
same,Selectivity Index,[3],3.1
same,IC50,"[10]; Cytotoxicity VERO Lab B, Lab B",6 µg/mL
same,IC50,[10]; [15],7 µg/mL
same,IC50 at 48 h,[11]; Cytotoxicity Macrophages IC50,3.3 µM
same,IC50 at 48 h,[11]; [16],> 10 µM
same,GI50,HT-29 cells,> 93.8 µg/mL
same,GI50,K562 cells,26.5 µg/mL
same,GI50,H460 cells,> 93.8 µg/mL
same,GI50,DU145 cells,> 93.8 µg/mL
same,GI50,M-14 cells,> 93.8 µg/mL
same,GI50,MCF-7 cells,24.5 µg/mL
same,GI50,"3T3 cells; 48 h, SRB",> 93.8 µg/mL
same,GI50,VERO cells [6],> 93.8 µg/mL
Clc1ccc(/C=N\Nc2ncnc3sc4c(c23)CCCC4)cc1 [II-28],IC50,L. peruviana LCA08,> 10 µg/mL
same,Mean lesion size (mm),L. amazonensis; after 4 weeks treatment,3.6 mm
same,Mean parasite quantification (per 10^6) in lesion per mg (±SD),L. amazonensis; after 4 weeks treatment,0.92 (±0.32) amastigotes (×10^6)/mg
same,Mean lesion wt (mg) (±SD),L. amazonensis; after 4 weeks treatment,60.4 (±31.3) mg
same,% Variation of lesion wt,L. amazonensis; after 4 weeks treatment,0%
same,% reduction of parasite burden in the lesion,L. amazonensis; after 4 weeks treatment,46%
same,Mean lesion size (mm),L. amazonensis; after 7 weeks treatment,5.2 mm
same,Mean parasite quantification (per 10^6) in lesion per mg (±SD),L. amazonensis; after 7 weeks treatment,1.26 (±0.02) amastigotes (×10^6)/mg
same,Mean lesion wt (mg) (±SD),L. amazonensis; after 7 weeks treatment,169.1 (±15.3) mg
same,% Variation of lesion wt,L. amazonensis; after 7 weeks treatment,−90%
same,% reduction of parasite burden in the lesion,L. amazonensis; after 7 weeks treatment,25%
same,IC50,VERO cells [7],> 80 µg/mL
same,IC50,L. braziliensis PER006,5.9 µg/mL
same,IC50,[8]; [12],3.3 µM
same,IC50,[8]; read-out: L. amazonensis IC50,0.6 µM
same,MIC,M. tuberculosis MDR,6.25 µg/mL
same,MIC,M. tuberculosis H37Rv [1],> 100 µg/mL
same,MIC,M. tuberculosis H37Rv [9],12.5 µg/mL
same,Selectivity Index Lab B,[2]; Lab B,1.6
same,inhibition at 10 µg/mL,[2],74.7%
same,IC50,"[2]; Lab A, read-out: T. cruzi IC50 Lab A",1.6 µg/mL
same,IC50,[2]; [13],4.5 µg/mL
same,IC50,[2]; [14],6.5 µg/mL
same,Selectivity Index,[3],85.2
same,IC50,"[10]; Cytotoxicity VERO Lab B, Lab B",7 µg/mL
same,IC50,[10]; [15],27 µg/mL
same,IC50 at 48 h,[11]; Cytotoxicity Macrophages IC50,48.8 µM
same,IC50 at 48 h,[11]; [16],> 10 µM
same,GI50,HT-29 cells,5.2 µg/mL
same,GI50,K562 cells,2.3 µg/mL
same,GI50,H460 cells,4.4 µg/mL
same,GI50,DU145 cells,5 µg/mL
same,GI50,M-14 cells,> 62.5 µg/mL
same,GI50,MCF-7 cells,2.9 µg/mL
same,GI50,"3T3 cells; 48 h, SRB",6.4 µg/mL
same,GI50,VERO cells [6],3 µg/mL
NNc1ncnc2sc3c(c12)CCCC3 [PC],Cytotoxicity VERO cell,VERO cell,26.9 µg/mL
same,MIC MABA,M. tuberculosis H37Rv [1],82.5 µg/mL
same,T. cruzi IC50 Lab A,[2]; Lab A,4.1 µg/mL
same,T. cruzi IC50 Lab B,[2]; Lab B,4.7 µg/mL
same,IC50,[3],12 µM
same,Cytotoxicity VERO Lab B,VERO cells [4],9.0
same,IC50,"peritoneal macrophages; Table 8b, read-out: Cytotoxicity Macrophages IC50",7.4 µM
same,GI50 in indicated cell line: HT-29,HT-29 cells,4.6 µg/mL
same,GI50 in indicated cell line: K562,K562 cells,2.4 µg/mL
same,GI50 in indicated cell line: H460,H460 cells,2.1 µg/mL
same,GI50 in indicated cell line: DU145,DU145 cells,3.1 µg/mL
same,GI50 in indicated cell line: M-14,M-14 cells,5.4 µg/mL
same,GI50 in indicated cell line: MCF-7,MCF-7 cells,2.0 µg/mL
same,GI50 in indicated cell line: 3T3,3T3 cells,<0.98 µg/mL
same,GI50 in indicated cell line: VERO,VERO cells [6],2.5 µg/mL
